Experimental data: US11987642B2, “Bispecific HER2 and CD3 binding molecules” (MEMORIAL SLOAN KETTERING CANCER CENTER, priority 2014, dated 2024)

Assays:
U2OS osteosarcoma cells = experiment: Proliferation assay (WST-8), U2OS; type: cell-based, human
Description: (§1) Cell proliferation was determined using an ELISA plate reader and the WST-8 kit (Dojindo technologies) following the manufacturer's instructions and using the formula: % survival rate=(Sample-Background)/(Negative control-Background). Lapatinib (MSKCC pharmacy) was ground using a mortar and pestle and suspended in DMSO as previously described. To determine statistical significance, the results were analyzed using one-way ANOVA using Prism 6.0.

[1] = tested on: HeLa cervical carcinoma cells; experiment: Proliferation assay (WST-8), HeLa; type: cell-based, human
Description: as §1

SCCHN cell line PCI-30 = experiment: Proliferation assay (WST-8), PCI-30; type: cell-based, human
Description: as §1

[2] = tested on: HeLa cervical carcinoma cells; experiment: T cell cytotoxicity assays, HeLa; type: cell-based, human; details: lapatinib pretreatment
Description: The ^51Cr release assay was performed with effector T cells cultured in vitro in the presence of anti-CD3 and anti-CD28 for about 14 days. All target tumor cells were harvested with 2 mM EDTA in PBS, labeled with ^51Cr (Amersham, Arlington Height, IL) at 100 μCi/106 cells at 37° C. for 1 h. 5000 target cells/well were mixed with 50,000 effector cells (E:T=10:1) and BsAb antibodies in 96-well polystyrene round-bottom plates (BD Biosciences) to a final volume of 250 μl/well. The plates were incubated at 37° C. for 4 h. The released ^51Cr in supernatant was counted in a γ-counter (Packed Instrument, Downers Grove, IL). Percentage of specific release was calculated using the formula: (experimental cpm−background cpm)/(total cpm−background cpm)×100%, where cpm represented counts per minute of ^51Cr released. […] EC50 was calculated using SigmaPlot software.

[3] = tested on: trastuzumab-sensitive breast carcinoma cell line SKBR3; experiment: Proliferation assay (WST-8), SKBR3; type: cell-based, human; details: SKBR3, 72 hours, 10 μg/mL antibody; lapatinib positive control
Description: as §1
For cell proliferation assays, 5,000 tumor cells were plated using RPMI-1640 supplemented with 10% FBS in a 96 well plate for 36 hours before being treated with lapatinib or the antibodies at the specified concentrations. […] Lapatinib (Memorial Sloan Kettering Cancer Center pharmacy) was ground using a mortar and pestle and suspended in DMSO as previously described (Chen et al., 2012, Molecular cancer therapeutics 11:660-669). To determine statistical significance, the results were analyzed using one-way ANOVA using Prism 6.0.

HER2-positive cells = experiment: Blocking of HER2-BsAb redirected T cell cytotoxicity; type: cell-based, human; details: pre-incubation with blocking antibody
HCC1954 xenografts = experiment: Subcutaneous HCC1954 xenograft with intravenous PBMC; type: in vivo, DKO mice
Description: Subcutaneous xenografts were created with 5×10^6 cells suspended in Matrigel (Corning Corp, Tewksbury MA) and implanted in the flank of DKO mice. Effector peripheral blood mononuclear cell (PBMC) cells were purified from buffy coats purchased from the New York Blood Center. Prior to every experimental procedure, PBMCs were analyzed for their percentage of CD3, CD4, CD8 and CD56 cells to ensure consistency. […] Tumor size was measured using (1) hand-held TM900 scanner (Pieira, Brussels, BE); (2) Calipers; or (3) bioluminescence. Bioluminescence imaging was conducted using the Xenogen In Vivo Imaging System (IVIS) 200 (Caliper LifeSciences). Briefly, mice were injected intravenously with 0.1 mL solution of D-luciferin (Gold Biotechnology; 30 mg/mL stock in PBS). Images were collected 1 to 2 minutes after injection using the following parameters: a 10- to 60-second exposure time, medium binning, and an 8 f/stop. Bioluminescence image analysis was performed using Living Image 2.6 (Caliper LifeSciences).
In two other separate experiments, subcutaneous HER2-positive breast carcinoma cell line HCC1954 was mixed with subcutaneous PBMCs.

Compound: C#Cc1cccc(Nc2ncnc3cc(OCCOC)c(OCCOC)cc23)c1 [erlotinib]
- sensitivity of cells in proliferation assay (U2OS osteosarcoma cells): minimal sensitivity
- sensitivity of cells in proliferation assay [1]: pan-resistant
- sensitivity of cells in proliferation assay (SCCHN cell line PCI-30): resistant

Compound: CS(=O)(=O)CCNCc1ccc(-c2ccc3ncnc(Nc4ccc(OCc5cccc(F)c5)c(Cl)c4)c3c2)o1 [lapatinib]
- sensitivity of cells in proliferation assay (U2OS osteosarcoma cells): minimal sensitivity
- effect of pretreatment on sensitivity to HER2-BsAb mediated cytotoxicity [2]: increased sensitivity
- sensitivity of cells in proliferation assay [1]: pan-resistant
- sensitivity of cells in proliferation assay (SCCHN cell line PCI-30): resistant
- anti-proliferative effect [3]: strongest inhibition of cell proliferation

Compound: CCOc1cc2ncc(C#N)c(Nc3ccc(OCc4ccccn4)c(Cl)c3)c2cc1NC(=O)/C=C/CN(C)C [neratinib]
- sensitivity of cells in proliferation assay (U2OS osteosarcoma cells): minimal sensitivity
- sensitivity of cells in proliferation assay [1]: pan-resistant
- sensitivity of cells in proliferation assay (SCCHN cell line PCI-30): resistant

Compound: OKT3: CD3 specific blocking mAb
- effect of blocking on HER2-BsAb induced T cell cytotoxicity (HER2-positive cells): prevented HER2-BsAb T cell mediated cytotoxicity

Compound: huOKT3: humanized OKT3 CD3-specific antibody
- tumor growth (HCC1954 xenografts): only modest effects
- effect of blocking on HER2-BsAb induced T cell cytotoxicity (HER2-positive cells): blocked the ability of HER2-BsAb to induce T cell cytotoxicity
